The values that follow come from patent US9604975B2, “Indolyl-pyridone derivatives having checkpoint kinase 1 inhibitory activity” (Vernalis (R&D) Ltd., priority 2009, dated 2017).

SMILES strings stand for the structures. pIC50: −log10 of the molar value.

This assay addresses T1, CHK1 (Homo sapiens, UniProt O14757).
T1 construct: His; purchased Invitrogen
T1 sequence (O14757 1-476): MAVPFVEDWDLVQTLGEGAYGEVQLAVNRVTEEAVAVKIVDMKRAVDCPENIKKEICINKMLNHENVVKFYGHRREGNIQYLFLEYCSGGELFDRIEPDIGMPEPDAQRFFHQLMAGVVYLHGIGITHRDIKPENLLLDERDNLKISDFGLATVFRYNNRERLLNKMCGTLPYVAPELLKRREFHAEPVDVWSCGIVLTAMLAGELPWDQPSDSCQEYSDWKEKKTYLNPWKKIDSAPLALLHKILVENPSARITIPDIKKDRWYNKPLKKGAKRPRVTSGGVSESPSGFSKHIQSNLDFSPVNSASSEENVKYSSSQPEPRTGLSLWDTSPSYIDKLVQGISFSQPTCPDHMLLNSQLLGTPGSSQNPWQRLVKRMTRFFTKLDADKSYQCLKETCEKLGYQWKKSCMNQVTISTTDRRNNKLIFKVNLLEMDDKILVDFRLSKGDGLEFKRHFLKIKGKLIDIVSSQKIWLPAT
Nature of the assay: CHK1 Enzyme Assay (phosphorylation of Chktide peptide, 33P-ATP filter assay). Format: biochemical. The conditions noted are these: 12.5 nM His-CHK1, 0.01 mM ATP, 40 minutes at 30° C.; read-out: CHK1 Enzyme Activity (IC50 range). The procedure, abridged: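 Filter-binding radiometric readout of 33P incorporation into Chktide (14.8 μM), after a 40 min, 30 °C reaction at pH 7.5 (50 mM Hepes-NaOH, 0.1 mg/mL BSA). The reaction contained 12.5 nM His-tagged CHK1, inhibitor and 0.01 mM cold ATP plus labelled ATP.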
For the compound `O=C(Nc1cnn(Cc2ccc(F)c(F)c2)c1)c1c[nH]c(=O)c(-c2cc3cc(CN4CCN(CCO)CC4)ccc3[nH]2)c1` [Example 105, 5-{5-[4-(2-Hydroxyethyl)-piperazin-1-ylmethyl]-1H-indol-2yl}-6-oxo-1,6-dihydropyridine-3-carboxylic acid[1-(3,4-difluorobenzyl)-1H-pyrazol-4-yl]-amide], the pIC50 (as a rule, the negative decadic logarithm of the IC50, by convention in mol/L) is over 7.00.

As for `O=C(Nc1c[nH]c(=O)c(-c2cc3cc(CN4CCCCC4)ccc3[nH]2)c1)c1cnn(Cc2ccc(Cl)cc2)c1` [Example 44, 1-(4-Chloro-benzyl)-1H-pyrazole-4-carboxylic acid [6-oxo-5-(5-piperidin-1-ylmethyl-1H-indol-2-yl)-1,6-dihydro-pyridin-3-yl]-amide], the pIC50 is over 7.00.

As to `Cc1[nH]c(=O)c(-c2cc3ccccc3[nH]2)cc1C(=O)Nc1cnn(Cc2ccccc2)c1` [Example 17, 5-(1H-Indol-2-yl)-2-methyl-6-oxo-1,6-dihydro-pyridine-3-carboxylic acid (1-benzyl-1H-pyrazol-4-yl)-amide], the pIC50 was 5.82 to 6.30.

Regarding `O=C(Nc1c[nH]c(=O)c(-c2cc3ccccc3[nH]2)c1)c1cnn(Cc2ccc(C(F)(F)F)cc2)c1` [Example 25, 1-(4-Trifluoromethyl-benzyl)-1H-pyrazole-4-carboxylic acid [5-(1H-indol-2-yl)-6-oxo-1,6-dihydro-pyridin-3-yl]-amide], the pIC50 is 6.30 to 7.00.

On to `CC(C)(C)c1ccc(Cn2cc(C(=O)Nc3c[nH]c(=O)c(-c4cc5cc(OCCCN6CCCCC6)ccc5[nH]4)c3)cn2)cc1` [Example 153, 1-(4-tert-Butylbenzyl)-1H-pyrazole-4-carboxylic acid-{6-oxo-5-[5-(3-piperidin-1-ylpropoxy)-1H-indol-2-yl]-1,6-dihydropyridin-3-yl}-amide], for which the pIC50 is over 7.00.

On to `O=C(Nc1c[nH]c(=O)c(-c2cc3ccccc3[nH]2)c1)c1cnn(Cc2ccc(F)c(F)c2)c1` [Example 24, 1-(3,4-Difluoro-benzyl)-1H-pyrazole-4-carboxylic acid [5-(1H-indol-2-yl)-6-oxo-1,6-dihydro-pyridin-3-yl]-amide], for which the pIC50 was over 7.00.

Consider `CC(c1ccc(F)cc1)n1cc(C(=O)Nc2c[nH]c(=O)c(-c3cc4cc(CN5CCC(F)CC5)ccc4[nH]3)c2)cn1` (stereo not shown) [Example 90, 1-[1-(Fluoro-phenyl)-ethyl]-1H-pyrrazole-4-carboxylic acid {5-[5-(4-fluoro-piperidin-1ylmethyl)-1H-indol-2-yl]-6-oxo-1,6-dihydro-pyridin-3-yl}-amide], for which the pIC50 is over 7.00.

`O=C(Nc1c[nH]c(=O)c(-c2cc3ccccc3[nH]2)c1)c1cnn(CCCc2ccccc2)c1` [Example 94, 1-(3-Phenyl-propyl)-1H-pyrazole-4-carboxylic acid [5-(1H-indol-2-yl)-6-oxo-1,6-dihydro-pyridin-3-yl]-amide]: the pIC50 is over 7.00.

Regarding `CN1CCN(CCOc2ccc3[nH]c(-c4cc(NC(=O)c5cnn(Cc6ccccc6)c5)c[nH]c4=O)cc3c2)CC1` [Example 146, 1-Benzyl-1H-pyrazole-4-carboxylic acid (5-{5-[2-(4-methyl-piperazin-1-yl)-ethoxy]-1H-indol-2-yl}-6-oxo-1,6-dihydro-pyridin-3-yl)-amide], the pIC50 was over 7.00.

`CC1CCN(Cc2ccc3[nH]c(-c4cc(NC(=O)c5cnn(Cc6ccc(F)cc6)c5)c[nH]c4=O)cc3c2)CC1` [Example 82, 1-(4-Fluoro-benzyl)-1H-pyrazole-4-carboxylic acid {5-[5-(4-methyl-piperidin-1-ylmethyl)-1H-indol-2-yl]-6-oxo-1,6-dihydro-pyridin-3-yl}-amide]: the pIC50 is over 7.00.

For `O=C(Nc1cnn(Cc2ccc(F)c(F)c2)c1)c1c[nH]c(=O)c(-c2cc3cc(CN4CCC(O)CC4)ccc3[nH]2)c1` [Example 100, 5-[5-(4-Hydroxypiperidin-1-ylmethyl)-1H-indol-2yl]-6-oxo-1,6-dihydropyridine-3-carboxylic acid[1-(3,4-difluorobenzyl)-1H-pyrazol-4-yl]-amide], the pIC50 was over 7.00.

For the compound `O=C(Nc1c[nH]c(=O)c(-c2cc3cc(OCC4(CN5CCCC5)CC4)ccc3[nH]2)c1)c1cnn(Cc2ccccc2)c1` [Example 187, 1-Benzyl-1H-pyrazole-4-carboxylic acid {6-oxo 5-[5-(1-pyrrolidin-1-ylmethyl-cyclopropylmethoxy)-1H-indol-2-yl]-1,6-dihydro-pyridin-3-yl}-amide], the pIC50 was over 7.00.

Turning to `COCCN(C)Cc1ccc2[nH]c(-c3cc(NC(=O)c4cnn(Cc5ccccc5)c4)c[nH]c3=O)cc2c1` [Example 79, 1-Benzyl-1H-pyrazole-4-carboxylic acid [5-(5-{1(2-methoxy-ethyl)-methyl-aminol-methyl}-1H-indol-2-yl)-6-oxo-1,6-dihydro-pyridin-3-yl]-amide], the pIC50 was over 7.00.

Turning to `O=C(Nc1c[nH]c(=O)c(-c2cc3ccccc3[nH]2)c1)c1cnn(Cc2ccc(F)cc2)c1` [Example 21, 1-(4-Fluoro-benzyl)-1H-pyrazole-4-carboxylic acid [5-(1H-indol-2-yl)-6-oxo-1,6-dihydro-pyridin-3-yl]-amide], the pIC50 is over 7.00.

With `CCNCc1ccc2[nH]c(-c3cc(NC(=O)c4cnn(Cc5ccc(F)cc5)c4)c[nH]c3=O)cc2c1` [Example 83, 1-(4-Fluoro-benzyl)-1H-pyrazole-4-carboxylic acid [5-(5-ethylaminomethyl-1H-indol-2-yl)-6-oxo-1,6-dihydro-pyridin-3-yl]-amide], the pIC50 is over 7.00.

Take `O=C(Nc1c[nH]c(=O)c(-c2cc3cc(CN4CCN(CCO)CC4)ccc3[nH]2)c1)c1cnn(Cc2ccccc2)c1` [Example 65, 1-Benzyl-1H-pyrazole-4-carboxylic acid (5-{5-[4-(2-hydroxy-ethyl)-piperazin-1-ylmethyl]-1H-indol-2-yl}-6-oxo-1,6-dihydro-pyridin-3-yl)-amide]: the negative-log IC50 (pIC50) was over 7.00.

With `O=C(Nc1c[nH]c(=O)c(-c2cc3cc(CN4CCC(O)CC4)ccc3[nH]2)c1)c1cnn(Cc2ccccc2)c1` [Example 60, 1-Benzyl-1H-pyrazole-4-carboxylic acid {5-[5-(4-hydroxy-piperidin-1-ylmethyl)-1H-indol-2-yl]-6-oxo-1,6-dihydro-pyridin-3-yl}-amide], the pIC50 is over 7.00.

For the compound `O=C(Nc1cnn(Cc2ccccc2)c1)c1c[nH]c(=O)c(-c2cc3ccccc3[nH]2)c1` [Example 1, 5-(1H-Indol-2-yl)-6-oxo-1,6-dihydro-pyridine-3-carboxylic acid (1-benzyl-1H-pyrazol-4-yl)-amide], the pIC50 was over 7.00.

With `CN(C)CCOc1cccc2[nH]c(-c3cc(NC(=O)c4cnn(Cc5ccccc5)c4)c[nH]c3=O)cc12` [Example 159, 1-Benzyl-1H-pyrazole-4-carboxylic acid {5-[4-(2-dimethylamino-ethoxy)-1H-indol-2-yl]-6-oxo-1,6-dihydro-pyridin-3-yl}-amide], the pIC50 was over 7.00.

`O=C(Nc1c[nH]c(=O)c(-c2cc3cc(CN4CCOCC4)ccc3[nH]2)c1)c1cnn(Cc2ccccc2)c1` [Example 51, 1-Benzyl-1H-pyrazole-4-carboxylic acid [5-(5-morpholin-4-ylmethyl-1H-indol-2-yl)-6-oxo-1,6-dihydro-pyridin-3-yl]-amide]: the pIC50 is over 7.00.

Regarding `O=C(Nc1c[nH]c(=O)c(-c2cc3ccccc3[nH]2)c1)c1cnn(Cc2cccc(F)c2)c1` [Example 22, 1-(3-Fluoro-benzyl)-1H-pyrazole-4-carboxylic acid [5-(1H-indol-2-yl)-6-oxo-1,6-dihydro-pyridin-3-yl]-amide], the pIC50 was over 7.00.

For `CCc1cccc(Cn2cc(C(=O)Nc3c[nH]c(=O)c(-c4cc5cc(OCCN(CC)CC)ccc5[nH]4)c3)cn2)c1` [Example 130, 1-(3-Ethyl-benzyl)-1H-pyrazole-4-carboxylic acid {5-[5-(2-diethylamino-ethoxy)-1H-indol-2-yl]-6-oxo-1,6-dihydro-pyridin-3-yl}-amide], the pIC50 was over 7.00.

In the case of `C[C@H](c1ccccc1)n1cc(C(=O)Nc2c[nH]c(=O)c(-c3cc4cc(CN5CCCCC5)ccc4[nH]3)c2)cn1` [Example 168, 1-((R)-1-Phenyl-ethyl)-1H-pyrazole-4carboxylic acid [6-oxo-5-(5-piperidin-1-ylmethyl-1H-indol-2-yl)-1,6-dihydro-pyridin-3-yl]-amide], the pIC50 is over 7.00.

For `CC1CN(Cc2ccc3[nH]c(-c4cc(NC(=O)c5cnn(Cc6ccc(C(C)C)cc6)c5)c[nH]c4=O)cc3c2)CC(C)O1` (stereo not shown) [Example 72, 1-(4-isopropylbenzyl)-1H-pyrazole-4-carboxylic acid {5-[5-(2,6-dimethylmorpholin-4-ylmethyl)-1H-indol-2-yl)-6-oxo-1,6-dihydropyridin-3-yl}-amide], the pIC50 is over 7.00.

`CN1CCN(CCCOc2ccc3[nH]c(-c4cc(NC(=O)c5cnn(Cc6ccccc6)c5)c[nH]c4=O)cc3c2)CC1` [Example 140, 1-Benzyl-1H-pyrazole-4-carboxylic acid {5-[5-[3-(4-methyl-piperazin-1-yl)-propoxy]-1H-indol-2-yl}-6-oxo-1,6-dihydro-pyridin-3-yl)-amide]: the pIC50 is over 7.00.
